Assay [1] relates to QA receptors. The assay is described as follows: 3H-AMPA binding to QA receptors in synaptic plasma membranes. Also noted: species or system rat. The note with it: for ^3 H-AMPA binding to QA receptors, % of Control: diacid 100 μM, % of control binding ± s.d., corrected for nonspecific binding. The method, then: (§1) To further characterize the pharmacological specificity of the PDC conformers and identify other potential sites at which the transport inhibitor could bind, the compounds were tested for their ability to inhibit the binding of ^3 H-L-glutamate to NMDA receptors, ^3 H-KA binding to KA receptors, and ^3 H-AMPA (α-amino-3-hydroxy-5-methylisoxazole-4-propionic acid) binding to QA receptors. Binding to kainate receptors was quantified by the procedures of (a) Simon, J. R.; Contrera, J. F.; Kuhar, M. J., J. Neurochem 26, 141 (1976), and (b) London, E. D.; Coyle, J. T.; Molec. Pharm. 15, 492 (1979) which are incorporated by reference herein. Binding to quisqualate receptors (QA) were quantified as described by (c) Honore, T.; Lauridsen, J.; Krogsgaard-Larsen, P. J., Neurochem 1982, 38, 173, which are incorporated by reference herein. […] This lack of interaction with any of the excitatory receptors is in direct contrast with its potent inhibition of transport and identifies L-trans-2,4-PDC as a specific probe of the L-glutamate transport system.
(§2) Synaptic plasma membrane (SPMS) were prepared as previously described (Monaghan, D. T.; Cotman, C. W., Proc. Nat. Acad. Sci. U.S.A. 83:7532 (1986) incorporated by reference herein.) Briefly, male Sprague-Dawley rats (200 g) were decapitated, their forebrains were rapidly removed, and the brain tissue homogenized in 0.32M sucrose. Following differential centrifugation, a membrane fraction enriched in synapses, but low in myelin and mitochondria, was obtained. This membrane fraction was washed three times with […] Tris-acetate buffer, pH 7.2, and diluted into the appropriate assay buffer to about 200 μg protein/ml.
(§3) Binding to NMDA, KA, and QA receptors were quantified with ^3 H-L-glutamate, ^3 H-KA, and ^3 H-AMPA respectively. The binding assays were carried out using optimally selective conditions of time, temperature, and buffer for each of the three receptor classes. ^3 H-L-Glutamate binding was quantified under conditions that selectively label NMDA receptors. The SPMs were incubated with ^3 H-L-glutamate (10 nM, 50.9 Ci/mmol) in 50 mM Tris-acetate, pH 7.0, at 4° C. for 30 minutes. Non-specific binding was determined by the inclusion of 500 μM L-glutamate. KA receptors were quantified as previously described. ^3 H-KA (10 nM, 60 Ci/mmol) binding was determined in 50 mM Tris-citrate buffer, pH 7.0, at 4° C. for 30 min. Non-specific binding was determined by the inclusion of 100 μM unlabeled KA. QA receptors were measured with ^3 H-AMPA binding as described by Honore et al. J. Neurochem. 38:173-178 (1982). Essentially, 3 H-AMPA (10 nM, 27.6 Ci/mmol) binding is quantified in 50 mM Tris-acetate buffer, pH 7.2, containing 100 mM KSCN for 30 minutes at 4° C. Non-specific binding was determined by the inclusion of 100 μM quisqualic acid. In the inhibition studies, the conformationally defined analogues were included in the assay mixture at the appropriate concentrations (0.1-200 μM). The assays (total volume, 1.08 mL) were initiated by the addition of radiolabel and terminated by centrifugation (Beckman Microfuge, top speed, 3 min). Unbound radioligand in the supernatant was removed by suction and the radioactivity in the pellet quantified by liquid scintillation counting. All of the binding studies were carried out as 2 sets of triplicates within a single experiment and each experiment was repeated at least 3 times.

For assay [2], the target named is T1, high affinity transport of 3H-L-glutamate into synaptosomes (Rattus norvegicus, UniProt P31596).
T1 construct: Synaptosomes were prepared by the procedure of Booth et al; from tissue; host or cells: brain synaptosomes (Ficoll/sucrose gradient)
The assay can be described thus: Synaptosomal uptake of 3H-L-glutamate. Type of assay: biochemical. The note with it: 10 μM 3H-L-glutamate; for inhibition of glutamate transport (in words): isomers at similar concentrations (20 μM). On the procedure:
Synaptosomal uptake of ^3 H-L-glutamate (10 μM) was followed at 37° C. in the presence and absence of 20 μM PDC isomers. The curves shown are from representative experiments (n=2-4 rate determinations) and are reported as mean ±SD. Transport rates were determined by linear regression analysis and have been corrected for background and non-specific uptake. The effect of the PDC isomers and is reported as % of control transport rate ±SD (n=8-16 rate determinations).
(§4) The Synaptosomes were prepared by the procedure of (a) Booth, R. F. G.; Clark, J. B., Biochem J. 176, 365 (1978) and assayed for synaptosomal uptake as described by (b) Kuhar, M. M.; Zarbin, M. J., Neurochem 31, 251 (1978), both which are incorporated by reference herein. The binding specificities of the four PDC isomers were determined by testing both their ability to inhibit the high affinity transport of ^3 H-L-glutamate into synaptosomes and to block the binding of radioligands to each of the three receptor sites in a synaptic plasma membrane preparation (SPM) (Synaptic plasma membranes were prepared and NMDA receptor binding quantified as described by Monaghan, D. T.; Cotman, C. W., Proc. Nat. Acad. Sci. U.S.A. 83, 7532 (1986) incorporated by reference herein). When included in the ^3 H-L-glutamate uptake assay, as represented in FIG. 3, at only a 2-fold excess relative to L-glutamate (10 μM of ^3 H-L-glutamate vs. 20 μM of 7), the L-trans-2,4-PDC isomer reduced the rate of synaptosomal transport from control levels of 1.13 nmol min^-1 mg-protein^-1 to 0.16 nmol min^-1 mg-protein^-1. […] This selective inhibition by L-trans-2,4-PDCclearly delineates a preferred configurational and/or conformational relationship for binding to the glutamate uptake protein.
Synaptosomes were prepared by the procedure of Booth et al., (Biochem J. 176:365 (1978) incorporated by reference herein), using Ficoll/sucrose gradient centrifugation. Uptake of ^3 H-L-glutamate was followed essentially as described by Kuhar and Zarbin (J. Neurochem 31:[…] (1978) incorporated by reference herein.) Synaptosomes were suspended in a physiological buffer (Krebs-Ringer phosphate buffer) and preincubated at 37° C. for 5 min. The uptake assay was initiated by the addition of ^3 H-L-glutamate (0.1-100 μM). Aliquots were removed at appropriate times (0.5-10 min) and were rapidly filtered on GF/F glass fiber filters. The filters were rapidly washed with 20 volumes of ice cold buffer. Radioactivity present on the filters was determined by liquid scintillation counting. Uptake rates were corrected for both background (i.e., uptake at 0 min) and leakage (i.e., uptake at 0° C.).

For assay [3], the system named is KA receptors. The assay is described as follows: 3H-KA binding to KA receptors in synaptic plasma membranes. Also noted: species or system rat. The settings on record: for ^3 H-KA binding to KA receptors, % of Control: diacid 100 μM, % of control binding ± s.d., corrected for nonspecific binding. The method, then:
as §1, §2, §3

For assay [4], the system named is NMDA receptors. The assay can be described thus: 3H-L-glutamate binding to NMDA receptors in synaptic plasma membranes. Also noted: species or system rat. The settings on record: for ^3 H-L-GLU binding to NMDA receptors, % of Control: % of control binding ± s.d., corrected for nonspecific binding; for inhibition of ^3 H-L-glutamate binding to the NMDA receptor (in words): as reported in Table 1. On the procedure: as §4, §1, §2
Binding to NMDA, KA, and QA receptors were quantified with ^3 H-L-glutamate, ^3 H-KA, and ^3 H-AMPA respectively. The binding assays were carried out using optimally selective conditions of time, temperature, and buffer for each of the three receptor classes. ^3 H-L-Glutamate binding was quantified under conditions that selectively label NMDA receptors. The SPMs were incubated with ^3 H-L-glutamate (10 nM, 50.9 Ci/mmol) in 50 mM Tris-acetate, pH 7.0, at 4° C. for 30 minutes. Non-specific binding was determined by the inclusion of 500 μM L-glutamate. KA receptors were quantified as previously described. ^3 H-KA (10 nM, 60 Ci/mmol) binding was determined in 50 mM Tris-citrate buffer, pH 7.0, at 4° C. for 30 min. Non-specific binding was determined by the inclusion of 100 μM unlabeled KA. QA receptors were measured with ^3 H-AMPA binding as described by Honore et al. J. Neurochem. 38:173-178 (1982). […]

Molecules are shown by their SMILES.

T1 sequence (P31596 whole entry): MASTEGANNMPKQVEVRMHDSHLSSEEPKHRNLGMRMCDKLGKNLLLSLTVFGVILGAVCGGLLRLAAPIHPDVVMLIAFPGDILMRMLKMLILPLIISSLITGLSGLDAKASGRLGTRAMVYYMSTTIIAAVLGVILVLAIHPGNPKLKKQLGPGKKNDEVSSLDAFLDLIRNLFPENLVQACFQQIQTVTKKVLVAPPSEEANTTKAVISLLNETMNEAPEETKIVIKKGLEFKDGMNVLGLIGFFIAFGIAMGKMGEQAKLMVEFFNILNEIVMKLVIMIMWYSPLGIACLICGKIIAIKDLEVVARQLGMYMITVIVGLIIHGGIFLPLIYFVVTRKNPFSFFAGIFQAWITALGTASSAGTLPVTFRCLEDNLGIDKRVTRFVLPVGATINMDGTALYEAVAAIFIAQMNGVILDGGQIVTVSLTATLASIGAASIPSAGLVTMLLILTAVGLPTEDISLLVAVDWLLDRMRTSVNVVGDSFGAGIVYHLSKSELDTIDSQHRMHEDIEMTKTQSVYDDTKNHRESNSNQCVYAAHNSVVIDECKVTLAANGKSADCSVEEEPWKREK

For `O=C(O)[C@H]1CN[C@@H](C(=O)O)C1` [Diacid 14, cis-4-Carboxy-D-proline], in assay [1], the “^3 H-AMPA binding to QA receptors, % of Control” value (shortened to “^3 H-AMPA binding … % of Control”) is 110 ± 9 % of Control. Besides, the “inhibition of glutamate transport (in words)” value in assay [2] is “substantially less effective”. For the same molecule, the “^3 H-KA binding to KA receptors, % of Control” value (“^3 H-KA binding … % of Control” below) in assay [3] is on record as 101 ± 6 % of Control. In addition, the figures for the “^3 H-L-GLU binding to NMDA receptors, % of Control” value (“^3 H-L-GLU binding … % of Control” below) in assay [4] (diacid 20 μM) and in assay [4] (diacid 100 μM) were 76 ± 5 % of Control and 38 ± 12 % of Control, respectively.

In the case of `O=C(O)[C@@H]1CN[C@H](C(=O)O)C1` [Diacid 4, cis-4-Carboxy-L-proline], the “^3 H-AMPA binding … % of Control” value in assay [1] is listed as 102 ± 12 % of Control. Further, in assay [2], the “inhibition of glutamate transport (in words)” value was “substantially less effective”. Besides, in assay [3], the “^3 H-KA binding … % of Control” value is on record as 100 ± 12 % of Control. Also, the “^3 H-L-GLU binding … % of Control” value in assay [4] (diacid 100 μM) is reported as 89 ± 13 % of Control.

As for `O=C(O)[C@H]1CN[C@H](C(=O)O)C1` [Diacid 7, trans-4-Carboxy-L-proline], the “inhibition of radioligand binding to QA receptors (in words)” value in assay [1] (compound in 10^4 -fold excess) was “did not significantly inhibit”. The “^3 H-AMPA binding … % of Control” value in assay [1] is on record as 109 ± 13 % of Control. In assay [2] (20 μM compound, 37° C., control level 1.13), the “rate of synaptosomal transport” value stood at 0.16 nmol min^-1 mg-protein^-1. In addition, the inhibition at 20 µM in assay [2] (20 μM compound, read-out: reduction in the rate of uptake) was > 80%. In assay [2], the “inhibition of glutamate transport (in words)” value is reported as “potent inhibitor”. Also, the “inhibition of radioligand binding to KA receptors (in words)” value in assay [3] (compound in 10^4 -fold excess) is “did not significantly inhibit”. For the same molecule, the “^3 H-KA binding … % of Control” value in assay [3] is 102 ± 10 % of Control. Besides, the “inhibition of ^3 H-L-glutamate binding to the NMDA receptor (in words)” value in assay [4] is on record as “did not significantly inhibit”. In addition, the “^3 H-L-GLU binding … % of Control” value in assay [4] (diacid 100 μM) is reported as 87 ± 10 % of Control.

Regarding `O=C(O)[C@@H]1CN[C@@H](C(=O)O)C1` [Diacid 11, trans-4-Carboxy-D-proline], the “^3 H-AMPA binding … % of Control” value in assay [1] is listed as 108 ± 11 % of Control. For the same molecule, the “inhibition of glutamate transport (in words)” value in assay [2] is recorded as “substantially less effective”. Further, in assay [3], the “^3 H-KA binding … % of Control” value is recorded as 92 ± 6 % of Control. In addition, the “inhibition of ^3 H-L-glutamate binding to the NMDA receptor (in words)” value in assay [4] was “weakly inhibiting”. For the same molecule, the “^3 H-L-GLU binding … % of Control” value in assay [4] (diacid 100 μM) is listed as 95 ± 12 % of Control.
